{
  "source": "patent US20240390453A1",
  "about": "“PEPTIDE HAVING HAIR LOSS PREVENTION OR HAIR GROWTH PROMOTION ACTIVITY, AND USE THEREOF” (CAREGEN CO., LTD., priority 2021, published 2024)",
  "key": {"[1]": {"test_system": "human hair follicle dermal papilla cells (HHFDPC)", "assay": "Proliferation of dermal papilla cells (MTT, absorbance at 540 nm)", "type": "cell-based", "conditions": "peptide 500 nM, 72 hours, FIG. 1", "protocol": "While culturing human hair follicle dermal dermal papilla cells (HHFDPC), the absorbance was measured after treatment with the peptide of the present invention to confirm whether there was an effect of promoting the proliferation of the HHFDPC dermal papilla cells.\nSpecifically, HHFDPC (Sciencell, USA) was seeded at 4λ10^3 cells/well in a 96-well culture plate, cultured in MSC complete medium (mesenchymal stem cell complete media, Sciencell, USA) for 24 hours, and then the medium was replaced with serum free MSC complete medium and cultured for another 24 hours. Then, the HHFDPC was treated with the peptide of SEQ ID NO: 1 prepared in the Preparation Example at concentrations of 500 nM, 5 μM, and 50 μM, respectively, and cultured at 37° C. for 72 hours. As a positive control, minoxidil was treated at a concentration of 1 μM, and as a negative control, HHFDPC without any treatment was used. Then, 10 μl of 5 mg/mL MTT solution was added and cultured in a 37° C. CO2 incubator for 4 hours to stain the cells. After removing the medium, the cells were treated with 100 μl of DMSO and shaken for 10 minutes, and the number of HHFDPC cells was confirmed by measuring absorbance at a wavelength of 540 nm using a spectrophotometer."}, "[2]": {"test_system": "p-AKT", "assay": "Western blotting of phosphorylated AKT in HHFDPC", "type": "cell-based, human", "conditions": "peptide 500 nM, 5 μM, and 50 µM, 24 hours, FIG. 2", "protocol": "(§1) First, phosphorylated forms of AKT and ERK, which act as signaling molecules related to the proliferation of HHFDPC, were confirmed through Western blotting. Specifically, HHFDPC as in [Experiment Example 1-1] above was seeded at 4λ10^5 cells/well in a 6-well culture plate, cultured in MSC complete medium (mesenchymal stem cell complete media) for 24 hours, and then the medium was replaced with serum free MSC complete medium and cultured for another 24 hours. Then, the HHFDPC was treated with the peptide of SEQ ID NO: 1 prepared in the Preparation Example at concentrations of 500 nM, 5 μM, and 50 µM, respectively, and cultured at 37° C. for 24 hours. As a positive control, minoxidil was treated at a concentration of 1 μM, and as a negative control, HHFDPC without any treatment was used. Then, Western blotting was performed to detect phosphorylated AKT and phosphorylated ERK. After washing with PBS, the cells were treated with 100 μl of lysis buffer to destroy cells, thereby obtaining cell lysate. After electrophoresis using a 10% SDS-PAGE gel, it was transferred to a PVDF membrane and blocked using 5% skim milk at room temperature for 30 minutes. […] After washing again with 0.1% PBS-T (0.1% Tween-20 in PBS) three times for 15 minutes each, p-AKT and p-ERK were detected by treatment with ECL solution (GE Healthcare, USA)."}, "[3]": {"test_system": "p-ERK", "assay": "Western blotting of phosphorylated ERK in HHFDPC", "type": "cell-based, human", "conditions": "peptide 500 nM, 5 μM, and 50 µM, 24 hours, FIG. 2", "protocol": "as §1"}, "[4]": {"test_system": "β-catenin", "assay": "Western blotting of β-catenin moved into the nucleus of HHFDPC", "type": "cell-based, human", "conditions": "HHFDPC nuclear protein, peptide 500 nM, 5 µM, and 50 μM, 24 hours, FIG. 3", "protocol": "In addition, in addition to p-AKT and p-ERK, in order to confirm the activation of β-catenin, which is known to affect cell proliferation and differentiation, whether β-catenin moved into the nucleus was confirmed through Western blotting. Specifically, the HHFDPC as in [Experiment Example 1-1] was seeded in a 6-well culture plate at an amount of 4λ10^5 cells/well, cultured in MSC complete medium (mesenchymal stem cell complete media) for 24 hours. Next, the medium was replaced with serum free MSC complete medium and cultured again for 24 hours. Then, the HHFDPC was treated with the peptide of SEQ ID NO: 1 prepared in the Preparation Example at concentrations of 500 nM, […], and 50 μM, respectively, and cultured at 37° C. for 24 hours. As a positive control, minoxidil was treated at a concentration of 1 μM, and as a negative control, HHFDPC without any treatment was used. After washing with PBS, proteins in the nucleus were isolated using a nuclear protein extraction kit (Thermo scientific, USA). After electrophoresis using a 10% SDS-PAGE gel, it was transferred to a PVDF membrane and blocked using 5% skim milk at room temperature for 30 minutes. […] After washing again with 0.1% PBS-T (0.1% Tween-20 in PBS) three times for 15 minutes each, β-catenin was detected by treatment with ECL solution (GE Healthcare, USA)."}, "[5]": {"test_system": "LEF-1", "assay": "RT-PCR of LEF-1 expression in HHFDPC", "type": "cell-based, human", "conditions": "peptide 500 nM, 5 μM, 50 μM, 24 hours, FIG. 4", "protocol": "(§2) Furthermore, in order to determine whether the β-catenin moves to the nucleus and is activated to affect cell proliferation and differentiation, whether the expression of LEF-1, c-Myc and cyclin D1 (cyclin D1), which act as downstream factors, increases with β-catenin activation was confirmed through RT-PCR. Specifically, in the same manner as the previous Western blotting experiment, HHFDPC cells were cultured, treated with the peptides of the Preparation Example of the present invention at concentrations of 500 nM, 5 μM, and 50 μM, respectively, and cultured at 37° C. for 24 hours. After washing the cells with PBS, RNA was isolated by treating them with 300 μl of easy blue (intron, Korea). Then, cDNA was synthesized using a cDNA synthesis kit (enzynomics, Korea) by quantifying it with nano drop, and PCR was performed using primers for LEF-1, c-Myc and cyclin D1 (base sequences of the primer are listed in Table 2 below) and PCR premix (enzynomics, Korea). Electrophoresis was performed on a 1.5% agarose gel, and then the mRNA of LEF-1, c-Myc and cyclin D1 was detected using a band analysis system (Bio-Rad gel image system)."}, "[6]": {"test_system": "c-Myc", "assay": "RT-PCR of c-Myc expression in HHFDPC", "type": "cell-based, human", "conditions": "peptide 500 nM, 5 μM, 50 μM, 24 hours, FIG. 4", "protocol": "as §2"}, "[7]": {"test_system": "cyclin D1", "assay": "RT-PCR of cyclin D1 expression in HHFDPC", "type": "cell-based, human", "conditions": "peptide 500 nM, 5 μM, 50 μM, 24 hours, FIG. 4", "protocol": "as §2"}, "[8]": {"test_system": "DKK-1 protein (dickkopf-related protein 1)", "assay": "Western blotting of DKK-1 protein in DHT-treated HHFDPC", "type": "cell-based, human", "conditions": "HHFDPC with DHT 100 nM, peptide 500 nM, 5 μM, 50 μM, 24 hours, FIG. 5", "protocol": "DKK-1 protein (dickkopf-related protein 1) is a hair loss-related protein known to be highly expressed in individuals with hair loss, especially male pattern hair loss, and its expression is known to be promoted by hormones such as DHT (Dihydrotestosterone). Accordingly, the expression of DKK-1 protein was induced by treating HHFDPC cells with DHT together with the peptide according to the Preparation Example of the present invention, and then the expression level of DKK-1 was measured through Western blotting to determine whether there was an effect of suppressing the expression of DKK-1 protein.\nSpecifically, HHFDPC as in [Experiment Example 1-1] was seeded in a 6-well culture plate at 4λ10^5 cells/well and then cultured in MSC complete medium (mesenchymal stem cell complete media) for 24 hours. Next, the medium was replaced with serum free MSC complete medium and cultured again for 24 hours. In addition, the HHFDPC was treated with the peptide of SEQ ID NO: 1 prepared in the Preparation Example at concentrations of 500 nM, 5 μM, and 50 μM, respectively, and at this time, DHT, an expression inducer of DKK-1 protein, was simultaneously treated at a concentration of 100 nM and then cultured at 37° C. for 24 hours. […] After washing again with 0.1% PBS-T (0.1% Tween-20 in PBS) three times for 15 minutes each, DKK-1 protein was detected by treatment with ECL solution (GE Healthcare, USA)."}, "[9]": {"test_system": "Ha3-II", "assay": "RT-PCR of Ha3-II expression in HHORSC", "type": "cell-based, human", "conditions": "peptide 500 nM, 5 μM, 50 μM, 72 hours, FIG. 6", "protocol": "(§3) Specifically, HHORSC (human hair outer root sheath cell, Sciencell, USA) was seeded in a 6-well culture plate at 4λ10^5 cells/well and then cultured in MSC complete medium (mesenchymal stem cell complete media) for 24 hours. Next, the medium was replaced with serum free MSC complete medium and cultured again for 24 hours. Then, the HHORSC was treated with the peptide of SEQ ID NO: […] in the Preparation Example at concentrations of 500 nM, 5 μM, and 50 μM, respectively, and cultured at 37° C. for 72 hours. As a positive control, EGF was treated at a concentration of 50 nM, and as a negative control, HHORSC without any treatment was used. After washing with PBS, RNA was isolated by treating with 300 μl of easy blue (intron, Korea). Then, cDNA was synthesized using a cDNA synthesis kit (enzynomics, Korea) by quantification using nano drop, and PCR was performed using primers for Ha3-II, Keratin 5, Keratin 14, and Keratin 19 (base sequences of primer are listed in Table 3 below) and PCR premix (enzynomics, Korea). Electrophoresis was performed on a 1.5% agarose gel, and the mRNAs of Ha3-II, Keratin 5, Keratin 14, and Keratin 19 were detected using a band analysis system (Bio-Rad gel image system)."}, "[10]": {"test_system": "Keratin 5", "assay": "RT-PCR of Keratin 5 expression in HHORSC", "type": "cell-based, human", "conditions": "peptide 500 nM, 5 μM, 50 μM, 72 hours, FIG. 6", "protocol": "as §3"}, "[11]": {"test_system": "Keratin 14", "assay": "RT-PCR of Keratin 14 expression in HHORSC", "type": "cell-based, human", "conditions": "peptide 500 nM, 5 μM, 50 μM, 72 hours, FIG. 6", "protocol": "as §3"}, "[12]": {"test_system": "Keratin 19", "assay": "RT-PCR of Keratin 19 expression in HHORSC", "type": "cell-based, human", "conditions": "peptide 500 nM, 5 μM, 50 μM, 72 hours, FIG. 6", "protocol": "as §3"}, "[13]": {"test_system": "MSX2", "assay": "RT-PCR of MSX2 expression in HHGMC", "type": "cell-based, human", "conditions": "peptide 500 nM, 5 μM, 50 μM, 72 hours, FIG. 7", "protocol": "(§4) Specifically, HHGMC (human hair germinal matrix cell, Sciencell, USA) was seeded in a 6-well culture plate at 4λ10^5 cells/well and then cultured in MSC complete medium (mesenchymal stem cell complete media) for 24 hours. Next, the medium was replaced with serum free MSC complete medium and cultured again for 24 hours. Then, the HHGMC was treated with the peptide of SEQ ID NO: 1 prepared in the Preparation Example at concentrations of 500 nM, 5 μM, and 50 μM, respectively, and cultured at 37° C. for 72 hours. As a positive control, EGF was treated at a concentration of 50 nM, and as a negative control, HHGMC without any treatment was used. After washing with PBS, RNA was isolated by treating with 300 μl of easy blue (intron, Korea). Next, cDNA was synthesized using a cDNA synthesis kit (enzynomics, Korea) by quantification using nano drop, and PCR was performed using primers for MSX2 and FOXN1 (base sequences of primer are listed in Table 4 below) and PCR premix (enzynomics, Korea). Electrophoresis was performed on a 1.5% agarose gel, and mRNA of MSX2 and FOXN1 was detected using a band analysis system (Bio-Rad gel image system)."}, "[14]": {"test_system": "FOXN1", "assay": "RT-PCR of FOXN1 expression in HHGMC", "type": "cell-based, human", "conditions": "peptide 500 nM, 5 μM, 50 μM, 72 hours, FIG. 7", "protocol": "as §4"}},
  "data": [
    {"substance": "HLPKPI [peptide of the present invention]", "values": [
      {"measurement": "absorbance (number of HHFDPC cells, proliferation) compared to the untreated control group", "setting": "[1]; 5 μM, 50 μM, MTT, 540 nm", "result": "higher"},
      {"measurement": "proliferation promotion effect compared to the positive control group", "setting": "[1]; 5 μM, and 50 μM vs minoxidil 1 μM", "result": "better proliferation promotion effect than the positive control group"},
      {"measurement": "phosphorylation of AKT (p-AKT) compared to the control group not treated with the peptide", "setting": "[2]", "result": "increased"},
      {"measurement": "phosphorylation of ERK (p-ERK) compared to the control group not treated with the peptide", "setting": "[3]", "result": "increased"},
      {"measurement": "concentration dependence of β-catenin activation", "setting": "[4]", "result": "further promoted depending on the concentration"},
      {"measurement": "migration of β-catenin to the nucleus due to activation, compared to the control group not treated with the peptide", "setting": "[4]; Western blotting", "result": "increased"},
      {"measurement": "amount of LEF-1 mRNA compared to the control group without any treatment", "setting": "[5]", "result": "increased further"},
      {"measurement": "amount of c-Myc mRNA compared to the control group without any treatment", "setting": "[6]", "result": "increased further"},
      {"measurement": "amount of cyclin D1 mRNA compared to the control group without any treatment", "setting": "[7]", "result": "increased further"},
      {"measurement": "concentration dependence of the decrease of DHT-increased DKK-1 expression", "setting": "[8]", "result": "decreased again depending on the concentration"},
      {"measurement": "amount of DKK-1 protein compared to the negative control group (DHT only)", "setting": "[8]; Western blotting", "result": "reduced"},
      {"measurement": "amount of Ha3-II mRNA compared to the control group without treatment", "setting": "[9]", "result": "increased further"},
      {"measurement": "amount of Keratin 5 mRNA compared to the control group without treatment", "setting": "[10]", "result": "increased further"},
      {"measurement": "amount of Keratin 14 mRNA compared to the control group without treatment", "setting": "[11]", "result": "increased further"},
      {"measurement": "amount of Keratin 19 mRNA compared to the control group without treatment", "setting": "[12]", "result": "increased further"},
      {"measurement": "amount of MSX2 mRNA compared to the untreated control group", "setting": "[13]", "result": "increased further"},
      {"measurement": "amount of FOXN1 mRNA compared to the untreated control group", "setting": "[14]", "result": "increased further"}
    ]}
  ]
}
